Reference: patent publication US11174269B2, “Method for producing 1,2,4,5-cyclohexanetetracarboxylic dianhydride” (MITSUBISHI GAS CHEMICAL COMPANY, INC., priority 2017, dated 2021)

Experiment: Saturation solubility of 1,2,4,5-cyclohexanetetracarboxylic acid in water
Type: physicochemical
Text: Here, the saturation solubility of 1,2,4,5-cyclohexanetetracarboxylic acid in water is as follows.

- Saturation solubility (concentration of a saturated aqueous solution) (88.2 °C): 29.6 % by mass
- Saturation solubility (concentration of a saturated aqueous solution) (98.3 °C): 33.1 % by mass
- Saturation solubility (concentration of a saturated aqueous solution) (100 °C): 33.7 % by mass
SMILES: O=C(O)C1CC(C(=O)O)C(C(=O)O)CC1C(=O)O (stereo not drawn) [1,2,4,5-cyclohexanetetracarboxylic acid]
